Reference: paper PMC6316187, “Synergistic AML Cell Death Induction by Marine Cytotoxin (+)-1(R), 6(S), 1’(R), 6’(S), 11(R), 17(S)-Fistularin-3 and Bcl-2 Inhibitor Venetoclax” (Marine Drugs, 2018)

Target: DNA methyltransferase 1 (DNMT1) (Homo sapiens, UniProt P26358)
Assay: in vitro DNMT activity/inhibition assay (Active Motif), […] ng purified DNMT1, colorimetric; […] compound
Type: biochemical

DNA methyltransferase 1 (DNMT1), sequence (P26358 whole entry): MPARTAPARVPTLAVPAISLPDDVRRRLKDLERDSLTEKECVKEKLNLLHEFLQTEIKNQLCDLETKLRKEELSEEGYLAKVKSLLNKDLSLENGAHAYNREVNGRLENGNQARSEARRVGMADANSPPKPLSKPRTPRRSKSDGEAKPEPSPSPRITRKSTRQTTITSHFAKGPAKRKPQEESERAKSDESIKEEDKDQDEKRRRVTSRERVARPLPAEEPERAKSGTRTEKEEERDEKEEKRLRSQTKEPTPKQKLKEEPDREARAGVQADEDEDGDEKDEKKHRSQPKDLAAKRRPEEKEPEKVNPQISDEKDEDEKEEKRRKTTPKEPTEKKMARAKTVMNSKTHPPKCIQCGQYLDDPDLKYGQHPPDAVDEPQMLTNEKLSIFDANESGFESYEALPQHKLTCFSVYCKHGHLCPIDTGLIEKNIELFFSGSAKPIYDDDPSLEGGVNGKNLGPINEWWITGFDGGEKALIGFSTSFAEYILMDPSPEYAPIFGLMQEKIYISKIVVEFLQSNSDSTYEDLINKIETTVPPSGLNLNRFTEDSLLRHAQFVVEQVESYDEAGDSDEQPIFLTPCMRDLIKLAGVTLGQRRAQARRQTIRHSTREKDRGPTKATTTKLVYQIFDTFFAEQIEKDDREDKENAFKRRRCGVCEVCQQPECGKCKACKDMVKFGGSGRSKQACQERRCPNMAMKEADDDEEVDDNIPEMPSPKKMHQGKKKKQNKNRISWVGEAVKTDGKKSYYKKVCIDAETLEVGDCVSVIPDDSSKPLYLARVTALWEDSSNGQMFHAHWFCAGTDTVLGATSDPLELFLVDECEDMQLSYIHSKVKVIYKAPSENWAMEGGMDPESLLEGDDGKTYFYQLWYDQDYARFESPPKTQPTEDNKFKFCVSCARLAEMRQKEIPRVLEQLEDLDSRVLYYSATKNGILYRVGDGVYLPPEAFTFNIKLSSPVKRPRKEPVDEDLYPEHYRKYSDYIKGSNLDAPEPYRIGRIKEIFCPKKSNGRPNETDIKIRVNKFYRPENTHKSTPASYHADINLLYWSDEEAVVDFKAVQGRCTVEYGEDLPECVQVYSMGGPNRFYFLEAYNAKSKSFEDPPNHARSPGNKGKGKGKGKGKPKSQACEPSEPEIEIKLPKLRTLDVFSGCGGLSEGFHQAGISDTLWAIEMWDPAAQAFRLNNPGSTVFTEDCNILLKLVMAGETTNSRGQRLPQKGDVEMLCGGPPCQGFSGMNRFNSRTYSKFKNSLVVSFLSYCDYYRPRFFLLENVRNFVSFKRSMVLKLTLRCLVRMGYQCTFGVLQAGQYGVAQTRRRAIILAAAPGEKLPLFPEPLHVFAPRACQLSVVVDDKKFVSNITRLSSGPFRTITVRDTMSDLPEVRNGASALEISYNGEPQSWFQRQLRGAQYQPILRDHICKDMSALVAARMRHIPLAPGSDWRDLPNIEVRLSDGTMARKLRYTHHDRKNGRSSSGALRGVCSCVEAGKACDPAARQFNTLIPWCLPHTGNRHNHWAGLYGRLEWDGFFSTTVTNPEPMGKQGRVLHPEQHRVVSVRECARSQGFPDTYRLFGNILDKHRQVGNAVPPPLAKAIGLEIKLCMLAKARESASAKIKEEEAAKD

With COC1=C(Br)[C@H](O)[C@@]2(C=C1Br)CC(C(=O)NC[C@@H](O)COc1c(Br)cc([C@H](O)CNC(=O)C3=NO[C@]4(C=C(Br)C(OC)=C(Br)[C@@H]4O)C3)cc1Br)=NO2 [RS-F3, (+)-11(R), 17(S)-fistularin-3] the inhibition at 50 µM was about 25%.
